Columns and labels:
CYP2C9 = target: T1, CYP2C9 (Homo sapiens, UniProt P11712); test: Cocktail CYP inhibition assay in human liver microsomes, diclofenac 4'-hydroxylation; format: in vitro ADME; conditions: human liver microsomes 0.1 mg/mL, 5 μM diclofenac, 10 min 37° C.; unit inferred
T1 construct: 0.1 mg/mL protein human liver microsomes (BD Gentest); tissue BD Gentest; host or cells: human liver microsomes
Experimental: (§1) Determination of IC50 in a Cocktail Assay for CYPs 1A2, 2C9, 2C19, 2D6 and 3A4
(§2) This assay was performed in a standard 96-well plate design. IC50 values were calculated from the percent inhibition observed for each test compound at 6 concentrations (for example, 0.0032, 0.016, 0.08, 0.4, 2 and 10 μM). The incubation substrate mix contains 10 μM phenacetin (1A2), 5 μM diclofenac (2C9), 30 μM mephenytoin (2C19), 5 μM dextromethorphan (2D6) and 2 μM midazolam (3A4), 0.1 mg/mL protein human liver microsomes (BD Gentest), 1 mM NAPDH, 3.3 mM MgCl2 and 100 mM potassium phosphate buffer (pH 7.4). The production of the metabolite of each probe substrate was determined after incubation for 10 min at 37° C. Quantitation of the metabolite peak area ratio against an internal standard (tolbutamide) was determined by LC/MS/MS analysis following acetonitrile treatment of the incubations.
(§3) Samples were analyzed in the MRM mode with a SCIEX API-4000 mass spectrometer (Applied Biosystems, Foster City, Calif.), with a Shimadzu LC-20 AD pump (Shimadzu corporation, Kyoto, JP) and a CTC PAL autosampler (Agilent Technologies, Switzerland). A Phenomenex, Luna, 5 μm, 100 A, 2.00×30 mm HPLC column was used for the separation. The mobile phases were: (A) 0.1% formic acid in water and (B) 0.1% formic acid in acetonitrile. The binary gradient was as follows.
(§4) The peak area ratio of the analyte to the internal standard was used to quantify the metabolite. The values of peak area ratios in the presence of test compound were compared to those of maximum or minimum controls and were expressed as % inhibition by interpolating between the maximum and minimum peak area ratios. Incubations with no inhibitor were defined as the maxima.
(§5) The following equation was used to calculate the % inhibition: [1−[(X−Low control)/(High control−Low control)]]*100
(§6) For the IC50 calculation, SigmaPlot was used to plot the mean % inhibition versus the test compound concentrations and for non-linear regression analysis of the data. […]

CYP2C19 = target: T2, CYP2C19 (Homo sapiens, UniProt P33261); test: Cocktail CYP inhibition assay in human liver microsomes, mephenytoin 4'-hydroxylation; format: in vitro ADME; conditions: human liver microsomes 0.1 mg/mL, 30 μM mephenytoin, 10 min 37° C.; unit inferred
T2 construct: 0.1 mg/mL protein human liver microsomes (BD Gentest); tissue BD Gentest; host or cells: human liver microsomes
Experimental: as §1, §2, §3, §4, §5, §6

CYP1A2 = target: T3, CYP1A2 (Homo sapiens, UniProt P05177); test: Cocktail CYP inhibition assay in human liver microsomes, phenacetin O-deethylation; format: in vitro ADME; conditions: human liver microsomes 0.1 mg/mL, 10 μM phenacetin, 10 min 37° C.; test conc. up to 10 μM; unit inferred
T3 construct: 0.1 mg/mL protein human liver microsomes (BD Gentest); tissue BD Gentest; host or cells: human liver microsomes
T3 sequence (P05177 1-516): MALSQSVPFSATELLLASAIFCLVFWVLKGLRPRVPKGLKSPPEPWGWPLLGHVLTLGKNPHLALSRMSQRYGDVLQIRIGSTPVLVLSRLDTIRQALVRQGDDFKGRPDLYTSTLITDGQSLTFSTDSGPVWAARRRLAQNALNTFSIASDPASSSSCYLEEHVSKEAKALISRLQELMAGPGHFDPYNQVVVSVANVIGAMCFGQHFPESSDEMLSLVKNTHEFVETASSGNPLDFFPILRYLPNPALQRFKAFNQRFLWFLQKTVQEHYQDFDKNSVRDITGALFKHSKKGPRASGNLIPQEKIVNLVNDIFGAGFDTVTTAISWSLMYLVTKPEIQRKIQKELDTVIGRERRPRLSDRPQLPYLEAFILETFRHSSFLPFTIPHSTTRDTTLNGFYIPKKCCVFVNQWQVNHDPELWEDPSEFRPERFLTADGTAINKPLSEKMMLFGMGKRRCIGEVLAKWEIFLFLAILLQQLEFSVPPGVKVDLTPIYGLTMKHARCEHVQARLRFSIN
Experimental: as §1, §2, §3, §4, §5, §6

human CYP11B1 = target: T4, human CYP11B1 (Homo sapiens, UniProt P15538); test: IC50 vs CYP11B1 by cortisol synthesis in V79 cells (HTRF); format: cell-based; conditions: V79 cells expressing human CYP11B1, 1500 nM RSS, test conc. 0.5-10000 nM, unit inferred
T4 construct: expressed in transfected cells
T4 sequence (P15538 25-503): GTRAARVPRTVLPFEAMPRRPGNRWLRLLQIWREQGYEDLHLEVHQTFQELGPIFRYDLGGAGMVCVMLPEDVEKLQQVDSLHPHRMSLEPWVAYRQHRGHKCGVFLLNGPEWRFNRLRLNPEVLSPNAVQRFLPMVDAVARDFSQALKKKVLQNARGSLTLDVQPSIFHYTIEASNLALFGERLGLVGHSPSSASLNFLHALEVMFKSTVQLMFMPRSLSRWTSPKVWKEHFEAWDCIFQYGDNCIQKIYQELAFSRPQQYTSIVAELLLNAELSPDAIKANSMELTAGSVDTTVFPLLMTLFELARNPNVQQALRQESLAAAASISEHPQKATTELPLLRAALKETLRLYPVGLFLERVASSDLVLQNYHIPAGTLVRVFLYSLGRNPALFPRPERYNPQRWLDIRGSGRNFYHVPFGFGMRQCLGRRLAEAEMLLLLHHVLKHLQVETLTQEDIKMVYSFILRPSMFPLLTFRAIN
Experimental: Determination of IC50 Vs CYP11B1/CYP11B2 by Measurement of Cortisol/Aldosterone Synthesis
This assay was performed in a standard 384-well plate design using cultured V79 cells stably expressing human CYP11B1 or human CYP11B2. Test compounds at 10 concentrations (for example, 10000, 3333.3, 1111.1, 370.4, 123.5, 41.2, 13.7, 4.6, 1.5 and 0.5 nM) were added in 384-well plate after the cell-seeding procedure. The incubation substrate contains 1500 nM RSS for CYP11B1 assay/750 nM DOC for CYP11B2 assay. The Cortisol/Aldosterone production of cell culture supernatant was determined by Cortisol/Aldosterone HTRF kit after for about 15 hours incubation at RT (protect from light). IC50 values were calculated from the percent inhibition observed for each test compound at 10 concentrations.
The assay plate was read using Envision (Perkin Elmer, Waltham, Mass.) at 665 nm and 590 nm (using Filter Barcode of 217#, 205#; Mirror Barcode of 446#).
Data are analyzed using Assay Data Analyzer. All ratio data (665 nm/590 nm) are back calculated according to the standard curve, resulting in Cortisol/Aldosterone concentrations. IC50 values are reported as the Inflection Point (IP) of a four parameter fit of the titration data.
The following equation was used to calculate the % inhibition: % Activity=100×{1−(Sample_back calculated Cortisol/Aldosterone concentration−LC_back calculated Cortisol/Aldosterone concentration)/(HC_back calculated Cortisol/Aldosterone concentration−LC_back calculated Cortisol/Aldosterone concentration)} Curve Fitting: Four Parameter Logistic: […]

T1 sequence (P11712 whole entry): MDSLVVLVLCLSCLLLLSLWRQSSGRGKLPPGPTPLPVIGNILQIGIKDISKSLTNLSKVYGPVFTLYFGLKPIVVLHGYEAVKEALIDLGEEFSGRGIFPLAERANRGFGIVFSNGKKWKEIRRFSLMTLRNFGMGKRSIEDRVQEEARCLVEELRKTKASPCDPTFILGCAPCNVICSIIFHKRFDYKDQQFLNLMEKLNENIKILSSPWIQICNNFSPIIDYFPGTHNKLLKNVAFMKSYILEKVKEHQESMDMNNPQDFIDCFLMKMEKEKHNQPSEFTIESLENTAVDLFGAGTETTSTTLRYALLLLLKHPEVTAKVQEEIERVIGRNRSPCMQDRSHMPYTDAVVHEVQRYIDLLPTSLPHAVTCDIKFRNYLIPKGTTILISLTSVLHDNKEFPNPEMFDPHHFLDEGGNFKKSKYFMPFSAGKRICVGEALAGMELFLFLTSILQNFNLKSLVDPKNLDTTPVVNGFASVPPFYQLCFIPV
T2 sequence (P33261 whole entry): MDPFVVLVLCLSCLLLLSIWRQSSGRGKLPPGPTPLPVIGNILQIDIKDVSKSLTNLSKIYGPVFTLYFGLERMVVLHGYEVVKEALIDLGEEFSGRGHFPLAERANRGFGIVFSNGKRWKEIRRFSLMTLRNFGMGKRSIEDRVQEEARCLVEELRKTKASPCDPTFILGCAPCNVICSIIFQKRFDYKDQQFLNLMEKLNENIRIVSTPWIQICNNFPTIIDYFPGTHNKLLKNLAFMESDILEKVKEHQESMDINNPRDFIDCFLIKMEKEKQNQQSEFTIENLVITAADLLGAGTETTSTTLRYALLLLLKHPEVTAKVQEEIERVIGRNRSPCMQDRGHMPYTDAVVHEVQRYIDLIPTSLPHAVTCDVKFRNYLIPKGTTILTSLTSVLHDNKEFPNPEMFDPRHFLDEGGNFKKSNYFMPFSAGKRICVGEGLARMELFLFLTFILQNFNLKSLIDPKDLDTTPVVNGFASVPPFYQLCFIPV

| Compound | IC50 (CYP2C9) | IC50 (CYP2C19) | IC50 (CYP1A2) | IC50 (human CYP11B1) |
| --- | --- | --- | --- | --- |
| COCC(c1cncn1[C@H](C)c1ccc(F)cc1)N1CCN(S(=O)(=O)c2cnc(N3CCN(C)CC3)s2)CC1 (single isomer, unassigned) [Compound 35] | > 10 µM | > 10 µM | > 10 µM | 2.18 µM |
| COCCC(c1cncn1[C@H](C)c1ccc(F)cc1)N1CCN(S(=O)(=O)c2cnc(N3CCN(C)CC3)s2)CC1 (single isomer, unassigned) [Compound 36] | > 10 µM | > 10 µM | > 10 µM | 1.35 µM |
| C[C@H](c1ccc(F)cc1)n1cncc1C1CCCC2CN(S(=O)(=O)c3cnc(Nc4ccccn4)s3)CCN21 (single isomer, unassigned) [Compound 38] | 1.22 µM | 4.18 µM | > 10 µM | 2.14 µM |

— patent US9556202B2, “Sulfonamide derivatives and methods of use thereof for improving the pharmacokinetics of a drug” (MERCK SHARP & DOHME CORP., priority 2012, dated 2017)
